Laboratory results taken from patent US20240139129A1, “NOVEL METHOD AND AGENT FOR TREATING, DIAGNOSING AND DETECTING DIABETES AND COMPLICATIONS” (Biozipcode, Inc., priority 2021, published 2024).

Tested on: diabetic patients (type 1 and type 2 diabetes mellitus)
Test: Research Plan 2: therapy of diabetes mellitus targeting bone marrow-derived abnormal hematopoietic stem cell in patients
Format: in vivo, human
Conditions: type 1 and type 2 diabetic patients, 12 weeks therapy

## insulin: insulin therapy alone for three months (control group) in the human research plan
  (A) effect of eliminating abnormal hematopoietic stem cells: not eliminated
  (B) effect of healing diabetes mellitus: not observed
  (C) therapeutic effect on a complication: observed to some extent
